Among the data in PubChem BioAssay (NCI) are GI50 and TGI values, retold here.

Some test systems named below: A549 NSCLC; DU-145 prostate; K-562 leukemia; MCF7 breast; NCI-H23 lung; OVCAR-8 ovarian; SF-268 CNS; SK-OV-3 ovarian; SW-620 colon; UO-31 renal.
Test in all cases: NCI-60 cell line screen, 48 h

SMILES strings stand for the structures. Several values for one entry are separate records, joined by “and”; a condition that tells them apart may be missing. Equal entries are not always repeated.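 Cultured in 96-well plates, cells were exposed to test compound for 48 hours across five concentrations. GI50: concentration for 50% inhibition of growth. TGI: concentration producing complete growth inhibition.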

As to `C[C@@]12CCC[C@@](C)(C(=O)O)C1CC[C@@]13CC(=O)[C@@](CO)(CCC12)C3` (some centres undefined), the GI50 in the assay with A549 NSCLC, in the assay on DU-145 prostate, in the assay with K-562 leukemia, with MCF7 breast, with NCI-H23 lung and with OVCAR-8 ovarian was > 100 µM each time. Moreover, the GI50 in the assay on SF-268 CNS, with SK-OV-3 ovarian, with SW-620 colon and in the assay with UO-31 renal was > 100 µM in each case. Further, the TGI in the assay with A549 NSCLC, in the assay on DU-145 prostate, in the assay with K-562 leukemia, with MCF7 breast, in the assay on NCI-H23 lung and in the assay on OVCAR-8 ovarian was > 100 µM each time. Further, the TGI in the assay on SF-268 CNS, with SK-OV-3 ovarian, in the assay with SW-620 colon and in the assay with UO-31 renal was > 100 µM throughout.
Take `NCC(=O)CCC(=O)O`: the GI50 in the assay with A549 NSCLC, in the assay with DU-145 prostate, in the assay with K-562 leukemia, in the assay with MCF7 breast, in the assay on NCI-H23 lung and in the assay on OVCAR-8 ovarian was > 100 µM in each case. Moreover, the GI50 in the assay on SF-268 CNS, in the assay with SK-OV-3 ovarian, with SW-620 colon and with UO-31 renal was > 100 µM throughout. In addition, the TGI in the assay with A549 NSCLC, in the assay on DU-145 prostate, in the assay on K-562 leukemia, with MCF7 breast, in the assay on NCI-H23 lung and in the assay on OVCAR-8 ovarian was > 100 µM in each case. In addition, the TGI in the assay on SF-268 CNS, with SK-OV-3 ovarian, with SW-620 colon and in the assay with UO-31 renal was > 100 µM in each case.
As to `COc1cc2c3c(n(C)c(=O)c2cc1OC)-c1cc2c(cc1/C3=C\[C@@H](N)CCCCN)OCO2`, the GI50 was 0.381 µM in the assay on A549 NSCLC; 0.717 µM with DU-145 prostate; 2.43 µM with K-562 leukemia; 0.657 µM in the assay with MCF7 breast; 1.29 µM in the assay on NCI-H23 lung; 2.66 µM in the assay with OVCAR-8 ovarian. Further, the GI50 in the assay with SF-268 CNS is 1.86 µM; in the assay with SK-OV-3 ovarian, > 26.2 µM; in the assay on SW-620 colon, 1.57 µM; in the assay on UO-31 renal it was 8 µM. Besides, the TGI is 37 µM with DU-145 prostate; > 72.2 µM with K-562 leukemia; > 49.3 µM in the assay on MCF7 breast; 20.5 µM with NCI-H23 lung; > 45.8 µM with OVCAR-8 ovarian; > 42 µM in the assay with SF-268 CNS. In addition, the TGI in the assay with SK-OV-3 ovarian, in the assay with SW-620 colon and with UO-31 renal was > 100 µM each time.
Turning to `COc1ccc(-c2c(C#N)c(N)nc3c2CCCc2ccc(F)cc2-3)cc1OC`, the GI50 is 0.174 µM in the assay with A549 NSCLC; 0.0164 µM in the assay on DU-145 prostate; < 0.01 µM with K-562 leukemia; < 0.01 µM in the assay on MCF7 breast; 0.487 µM with NCI-H23 lung; 0.419 µM with OVCAR-8 ovarian. In addition, the GI50 was 0.0335 µM with SF-268 CNS, 4.27 µM in the assay with SK-OV-3 ovarian and 0.148 µM with UO-31 renal. Moreover, the TGI in the assay with A549 NSCLC is > 54 µM; in the assay with DU-145 prostate it was 15.7 µM; in the assay on K-562 leukemia, > 100 µM; in the assay on MCF7 breast, > 100 µM; in the assay with NCI-H23 lung, > 100 µM; in the assay with OVCAR-8 ovarian, > 100 µM. The TGI with SF-268 CNS is > 100 µM; in the assay with SK-OV-3 ovarian, > 92.3 µM; in the assay with SW-620 colon, > 38.8 µM; in the assay on UO-31 renal, > 100 µM.
For the compound `COC(=O)[C@H](Cc1ccccc1)NC(=O)[C@@H](OC)[C@@H]1Cc2cc3cc(OC4CC(OC5CC(O)C(O)C(C)O5)C(O)C(C)O4)c(C)c(O)c3c(O)c2C(=O)[C@H]1OC1CC(OC2CC(OC3CC(C)(O)C(O)C(C)O3)C(O)C(C)O2)C(O)C(C)O1` (some centres undefined), the GI50 in the assay on A549 NSCLC was 0.0532 µM; with DU-145 prostate, 0.0286 µM; in the assay with K-562 leukemia it was 0.0312 µM; in the assay with MCF7 breast, 0.00534 µM; in the assay on NCI-H23 lung it was 0.0106 µM; with OVCAR-8 ovarian it was 0.0108 µM. Besides, the GI50 is 0.0298 µM in the assay with SF-268 CNS, 0.0509 µM with SK-OV-3 ovarian, 0.0196 µM in the assay on SW-620 colon and 0.0343 µM with UO-31 renal. Besides, the TGI in the assay on A549 NSCLC is > 14.3 µM; in the assay with DU-145 prostate, > 14.3 µM; in the assay on K-562 leukemia, > 14.3 µM; with MCF7 breast, 0.241 µM; in the assay with NCI-H23 lung, 0.0821 µM; in the assay on OVCAR-8 ovarian, > 14.3 µM. The TGI was 2.24 µM in the assay on SF-268 CNS, > 14.3 µM in the assay with SK-OV-3 ovarian, > 14.3 µM in the assay on SW-620 colon and 0.332 µM with UO-31 renal.
`C=C(C(=O)OC)[C@@H]1C[C@@H](O)[C@]2(C)CC/C=C(\C)CCC[C@H](C)[C@H](O)C1O2`: the GI50 in the assay on A549 NSCLC was 61.3 µM; in the assay with DU-145 prostate, 45.5 µM; in the assay on K-562 leukemia, 22.2 µM; with MCF7 breast, 31.7 µM; in the assay on NCI-H23 lung it was 80.6 µM; in the assay with OVCAR-8 ovarian, > 100 µM. In addition, the GI50 with SF-268 CNS is 65 µM; with SK-OV-3 ovarian, > 100 µM; with SW-620 colon it was 42.2 µM; in the assay on UO-31 renal, 52.8 µM. Moreover, the TGI in the assay with A549 NSCLC was > 100 µM; with DU-145 prostate, > 100 µM; with K-562 leukemia it was 62.2 µM; in the assay on MCF7 breast, > 100 µM; in the assay on NCI-H23 lung, > 100 µM; in the assay with OVCAR-8 ovarian it was > 100 µM. Moreover, the TGI with SF-268 CNS, with SK-OV-3 ovarian, in the assay with SW-620 colon and in the assay on UO-31 renal was > 100 µM in each case.
Take `Oc1ccc(-c2nc3ccc4[nH]ncc4c3c3c2CCCC3)c2cccnc12`: the GI50 in the assay on A549 NSCLC was 0.134 µM; with DU-145 prostate, 0.5 µM; in the assay with K-562 leukemia, 0.139 µM; in the assay with MCF7 breast, 0.179 µM; in the assay with NCI-H23 lung it was 0.158 µM; in the assay on OVCAR-8 ovarian, 0.148 µM. The GI50 in the assay on SF-268 CNS was 0.239 µM; with SK-OV-3 ovarian, 0.509 µM; in the assay on SW-620 colon, 0.123 µM; with UO-31 renal it was 0.128 µM. Moreover, the TGI with A549 NSCLC was 2.14 µM; in the assay on DU-145 prostate, 8.13 µM; in the assay with K-562 leukemia, 33.3 µM; with MCF7 breast, 2.89 µM; with NCI-H23 lung, 1.66 µM; in the assay with OVCAR-8 ovarian, 10.8 µM. Further, the TGI in the assay on SF-268 CNS was determined as 5.24 µM; with SK-OV-3 ovarian, 2.26 µM; in the assay with SW-620 colon, 11.1 µM; in the assay with UO-31 renal, 0.934 µM.
As to `O=C(Nc1ccccc1F)c1ccc(NC2=C(Cl)C(=O)N(Cc3ccccc3)C2=O)cc1`, the GI50 with A549 NSCLC was 13.5 µM; in the assay on DU-145 prostate it was 2.11 µM; in the assay on K-562 leukemia it was 2.68 µM; with MCF7 breast it was 2.02 µM; in the assay on NCI-H23 lung it was 13 µM; in the assay with OVCAR-8 ovarian it was 2.84 µM. The GI50 was 2 µM in the assay on SF-268 CNS, 17.6 µM with SK-OV-3 ovarian, 3.29 µM with SW-620 colon and 1.86 µM with UO-31 renal. Further, the TGI came out at 26.3 µM in the assay with A549 NSCLC; 4.34 µM in the assay with DU-145 prostate; 12.1 µM with K-562 leukemia; 5.06 µM in the assay on MCF7 breast; 25.7 µM in the assay on NCI-H23 lung; 7.86 µM in the assay with OVCAR-8 ovarian. Moreover, the TGI was 5.2 µM in the assay with SF-268 CNS, 31.4 µM in the assay on SK-OV-3 ovarian, 9.93 µM in the assay on SW-620 colon and 3.6 µM in the assay on UO-31 renal.
With `COc1ccc(-c2nn(-c3cccc(NC(=O)Nc4cccc(C(F)(F)F)c4)c3)cc2-c2ccncc2)cc1Cl`, the GI50 with A549 NSCLC was 1.83 µM; in the assay with DU-145 prostate it was 3.56 µM; in the assay with K-562 leukemia, 1.92 µM; with MCF7 breast it was 1.91 µM; with NCI-H23 lung, 3.02 µM; with OVCAR-8 ovarian it was 1.7 µM. Also, the GI50 in the assay with SF-268 CNS is 3.22 µM; with SK-OV-3 ovarian, 3.58 µM; in the assay on SW-620 colon, 3.37 µM; in the assay with UO-31 renal it was 1.48 µM. Moreover, the TGI in the assay with A549 NSCLC is > 100 µM; with DU-145 prostate, > 100 µM; in the assay with K-562 leukemia, > 100 µM; in the assay with MCF7 breast, > 100 µM; with NCI-H23 lung, > 100 µM; in the assay on OVCAR-8 ovarian, 10.4 µM. Besides, the TGI with SF-268 CNS, in the assay on SK-OV-3 ovarian, with SW-620 colon and in the assay with UO-31 renal was > 100 µM throughout.
For `O=[N+]([O-])c1ccc(O)c2ncccc12`, the TGI with A549 NSCLC was > 100 µM and 12.9 µM; with DU-145 prostate it was > 100 µM and 15.2 µM; in the assay on K-562 leukemia it was > 100 µM and 15.5 µM; in the assay on MCF7 breast, > 100 µM and 11.5 µM; in the assay on NCI-H23 lung, > 100 µM and 28.9 µM; in the assay with OVCAR-8 ovarian it was > 100 µM and 19.1 µM. The TGI in the assay with SF-268 CNS was > 100 µM and 16 µM; in the assay on SK-OV-3 ovarian, > 100 µM and 15.7 µM; in the assay on SW-620 colon it was > 100 µM and 18.6 µM; with UO-31 renal it was > 100 µM and 20.8 µM. The GI50 was 23.1 µM and 3.39 µM in the assay with MCF7 breast; 18.7 µM and 3.93 µM with UO-31 renal.
For `COc1cccc(C2C(C#N)=C(N)Oc3cc(OC)ccc32)c1` (centres undefined), the GI50 is 0.0496 µM with A549 NSCLC; 0.0347 µM with DU-145 prostate; 0.0203 µM in the assay on K-562 leukemia; 0.0211 µM with MCF7 breast; 0.0415 µM with NCI-H23 lung; 0.048 µM in the assay on OVCAR-8 ovarian. Besides, the GI50 in the assay with SF-268 CNS is 0.0762 µM; in the assay on SK-OV-3 ovarian, 0.0478 µM; in the assay with SW-620 colon it was 0.035 µM; in the assay on UO-31 renal, 0.0572 µM. Also, the TGI with A549 NSCLC was > 100 µM; in the assay with DU-145 prostate, 1.55 µM; in the assay with K-562 leukemia it was > 100 µM; with MCF7 breast it was > 72.4 µM; in the assay on NCI-H23 lung, > 33 µM; in the assay with OVCAR-8 ovarian it was > 100 µM. Besides, the TGI in the assay on SF-268 CNS was > 82.3 µM; with SW-620 colon, > 100 µM; in the assay with UO-31 renal, 31.1 µM.
Consider `COc1ccc2c(c1)C(=O)c1c-2n(CCCCl)c(=O)c2cc(N(C)C)ccc12`, for which the GI50 in the assay with A549 NSCLC is > 100 µM; with DU-145 prostate it was > 100 µM; in the assay on K-562 leukemia, > 100 µM; with MCF7 breast, 28.6 µM; in the assay with NCI-H23 lung it was > 100 µM; in the assay on OVCAR-8 ovarian, 42.5 µM. In addition, the GI50 is 33.3 µM in the assay with SF-268 CNS, 36.2 µM with SK-OV-3 ovarian, > 100 µM in the assay on SW-620 colon and > 100 µM in the assay with UO-31 renal. Further, the TGI in the assay with A549 NSCLC, in the assay on DU-145 prostate, in the assay on K-562 leukemia, in the assay on MCF7 breast, in the assay on NCI-H23 lung and in the assay with OVCAR-8 ovarian was > 100 µM each time. The TGI in the assay with SF-268 CNS, in the assay with SK-OV-3 ovarian, with SW-620 colon and in the assay on UO-31 renal was > 100 µM throughout.
